Measured values as given in patent US6900184B2, “Compositions containing pipercillin and tazobactam useful for injection” (Wyeth Holdings Corporation, priority 2003, dated 2005).

Assay: Light obscuration particulate testing (HIAC-3000, based on USP 788), at time zero and 24 hours
Type: physicochemical
Conditions: in Zosyn solutions, summary of Table 1
Method: Samples are prepared according to the compositions described in Table I. […] The fluid in the bag is mixed with gentle inversions for about 30 seconds. • The bags are labeled with identity and reconstitution time. • When added, aminoglycosides are added immediately. The fluid in the bag is mixed with gentle inversions for about 30 seconds. • A 50 ml sample is drawn with a 60 cc syringe fitted with a 21-gauge needle. • A clean, particle free vial is rinsed with water for injection, and then filled with about 45 ml of the sample. HIAC testing is performed immediately. • Into a suitably sized sample vial, a 3 ml sample is prepared for HPLC testing. HPLC testing is begun within an hour of sample preparation (Table 1). The remainder of the Zosyn® admixture samples (about 50 ml) are stored in a closed cabinet in the laboratory, at ambient temperature and tested again 24 hours later (Table 1). Light obscuration testing is performed using a HIAC-3000. A testing method, based on USP 788 is followed for the analysis. (See TABLE I) The data is reported on a particle per ml basis. […] The same sample was resampled and analyzed 24 hours after the first test. A summary of the HIAC data is provided as Table I.

SMILES | effect of added EDTA (edetate disodium dihydrate) on number of particles generated | effect of added aminoglycoside on number of particles generated
O=C(O)CN(CCN(CC(=O)O)CC(=O)O)CC(=O)O [EDTA, ethylene diamine tetraacetic acid] | significantly reduces the number of particles generated in 24 hours | 
NCC[C@H](O)C(=O)N[C@@H]1C[C@H](N)[C@@H](O[C@H]2O[C@H](CN)[C@@H](O)[C@H](O)[C@H]2O)[C@H](O)[C@H]1O[C@H]1O[C@H](CO)[C@@H](O)[C@H](N)[C@H]1O [amikacin] |  | increases the number of particles generated in 24 hours
